Source: paper PMC5218480 (PLoS ONE, 2017)

Test system: MV-4-11 cells
Test: Gene expression microarray analysis (Affymetrix PrimeView) and GSEA
Type: cell-based, human
Design: RFU PODN (11730768_x_at) / Fold change /veh PODN (11730768_x_at) / RFU LINC00158 (11744669_a_at) / Fold change /veh LINC00158 (11744669_a_at) / RFU DUSP10 (11751237_a_at) / Fold change /veh DUSP10 (11751237_a_at) / RFU ID3 (11757404_x_at) / Fold change /veh ID3 (11757404_x_at) / RFU PLEKHG5 (11737974_s_at) / Fold change /veh PLEKHG5 (11737974_s_at) / RFU LRRC4B (11730491_at) / Fold change /veh LRRC4B (11730491_at) / RFU GIMAP4 (11747438_a_at) / Fold change /veh GIMAP4 (11747438_a_at) / RFU KRT8 (11758183_x_at) / Fold change /veh KRT8 (11758183_x_at) / RFU CNN1 (11734310_a_at) / Fold change /veh CNN1 (11734310_a_at) / RFU VPS37D (11726825_at) / Fold change /veh VPS37D (11726825_at) / RFU C10orf10 (11716522_x_at) / Fold change /veh C10orf10 (11716522_x_at) / RFU KIR2DL2 /// KIR2DL4 /// KIR2DL5A /// KIR2DL5B /// KIR2DS1 /// KIR2DS2 /// KIR2DS3 /// KIR2DS4 /// KIR3DL3 /// KIR3DL3 /// KIR3DS1 (11738374_at) / Fold change /veh KIR2DL2 /// KIR2DL4 /// KIR2DL5A /// KIR2DL5B /// KIR2DS1 /// KIR2DS2 /// KIR2DS3 /// KIR2DS4 /// KIR3DL3 /// KIR3DL3 /// KIR3DS1 (11738374_at) / RFU C1QL1 (11718748_at) / Fold change /veh C1QL1 (11718748_at) / RFU TMPRSS4 (11747572_a_at) / Fold change /veh TMPRSS4 (11747572_a_at) / RFU HAMP (11756126_x_at) / Fold change /veh HAMP (11756126_x_at) / RFU RNFT2 (11725882_a_at) / Fold change /veh RNFT2 (11725882_a_at) / RFU NR4A2 (11747474_a_at) / Fold change /veh NR4A2 (11747474_a_at) / RFU ABCC12 (11746883_a_at) / Fold change /veh ABCC12 (11746883_a_at) / RFU TMEM136 (11760407_x_at) / Fold change /veh TMEM136 (11760407_x_at) / RFU CLDN22 /// WWC2 (11732394_at) / Fold change /veh CLDN22 /// WWC2 (11732394_at) / RFU HLA-DPB1 (11760878_x_at) / Fold change /veh HLA-DPB1 (11760878_x_at) / RFU SPINT1 (11716480_a_at) / Fold change /veh SPINT1 (11716480_a_at) / RFU GAP43 (11754022_s_at) / Fold change /veh GAP43 (11754022_s_at) / RFU A4GNT (11735810_at) / Fold change /veh A4GNT (11735810_at) / RFU PRB3 (11715151_x_at) / Fold change /veh PRB3 (11715151_x_at) / RFU TUBB4B (11761932_at) / Fold change /veh TUBB4B (11761932_at) / RFU CAPN14 (11732068_a_at) / Fold change /veh CAPN14 (11732068_a_at) / RFU TMCC2 (11721928_a_at) / Fold change /veh TMCC2 (11721928_a_at) / RFU IRGQ (11745062_a_at) / Fold change /veh IRGQ (11745062_a_at) / RFU FAM174B (11720279_a_at) / Fold change /veh FAM174B (11720279_a_at) / RFU TMPRSS4 (11748680_a_at) / Fold change /veh TMPRSS4 (11748680_a_at) / RFU FAM212B (11763350_a_at) / Fold change /veh FAM212B (11763350_a_at) / RFU PLEKHG5 (11743358_a_at) / Fold change /veh PLEKHG5 (11743358_a_at) / RFU ZSCAN30 (11745921_a_at) / Fold change /veh ZSCAN30 (11745921_a_at) / RFU CMKLR1 (11741424_a_at) / Fold change /veh CMKLR1 (11741424_a_at) / RFU LOC101060620 /// MAPK8IP1 (11723275_at) / Fold change /veh LOC101060620 /// MAPK8IP1 (11723275_at) / RFU SPTSSB (11747773_x_at) / Fold change /veh SPTSSB (11747773_x_at) / RFU PRSS12 (11739890_at) / Fold change /veh PRSS12 (11739890_at) / RFU BIN1 (11741810_x_at) / Fold change /veh BIN1 (11741810_x_at) / RFU WNT11 (11732464_a_at) / Fold change /veh WNT11 (11732464_a_at) / RFU C10orf10 (11716521_a_at) / Fold change /veh C10orf10 (11716521_a_at) / RFU C5orf56 (11738089_at) / Fold change /veh C5orf56 (11738089_at) / RFU CYB561 (11721691_x_at) / Fold change /veh CYB561 (11721691_x_at) / RFU ANKRD19P (11752326_a_at) / Fold change /veh ANKRD19P (11752326_a_at) / RFU OR2T12 /// OR2T33 /// OR2T8 (11738714_s_at) / Fold change /veh OR2T12 /// OR2T33 /// OR2T8 (11738714_s_at) / RFU VCAN (11748164_a_at) / Fold change /veh VCAN (11748164_a_at) / RFU JSRP1 (11732532_at) / Fold change /veh JSRP1 (11732532_at) / RFU KRTAP10-11 (11738290_x_at) / Fold change /veh KRTAP10-11 (11738290_x_at) / RFU MYO3A (11730013_a_at) / Fold change /veh MYO3A (11730013_a_at) / RFU EBF3 (11725865_a_at) / Fold change /veh EBF3 (11725865_a_at) / RFU CAMK2N1 (11719241_x_at) / Fold change /veh CAMK2N1 (11719241_x_at) / RFU C5orf56 (11738088_a_at) / Fold change /veh C5orf56 (11738088_a_at) / RFU OLFML3 (11715873_a_at) / Fold change /veh OLFML3 (11715873_a_at) / RFU LOC100653217 /// NTM (11731650_a_at) / Fold change /veh LOC100653217 /// NTM (11731650_a_at) / RFU MAPK11 (11762145_a_at) / Fold change /veh MAPK11 (11762145_a_at) / RFU FIZ1 (11724087_x_at) / Fold change /veh FIZ1 (11724087_x_at) / RFU OASL (11726364_x_at) / Fold change /veh OASL (11726364_x_at) / RFU SOX15 (11748057_x_at) / Fold change /veh SOX15 (11748057_x_at) / RFU CD79A (11719716_a_at) / Fold change /veh CD79A (11719716_a_at) / RFU HIST1H1D (11736915_at) / Fold change /veh HIST1H1D (11736915_at) / RFU CASKIN2 (11723855_a_at) / Fold change /veh CASKIN2 (11723855_a_at) / RFU LOC730098 (11760151_x_at) / Fold change /veh LOC730098 (11760151_x_at) / RFU OR4N2 (11742367_at) / Fold change /veh OR4N2 (11742367_at) / RFU PRRT2 (11749266_a_at) / Fold change /veh PRRT2 (11749266_a_at) / RFU SNX32 (11753110_a_at) / Fold change /veh SNX32 (11753110_a_at) / RFU CDHR5 (11726645_a_at) / Fold change /veh CDHR5 (11726645_a_at) / RFU RCAN1 (11760418_a_at) / Fold change /veh RCAN1 (11760418_a_at) / RFU FAM167A (11723789_a_at) / Fold change /veh FAM167A (11723789_a_at) / RFU FAM26E (11764081_at) / Fold change /veh FAM26E (11764081_at) / RFU ISYNA1 (11749810_s_at) / Fold change /veh ISYNA1 (11749810_s_at) / RFU ACY1 (11761880_at) / Fold change /veh ACY1 (11761880_at) / RFU 11764098_at / Fold change /veh 11764098_at / RFU SAMD14 (11745864_x_at) / Fold change /veh SAMD14 (11745864_x_at) / RFU NPB (11741838_a_at) / Fold change /veh NPB (11741838_a_at) / RFU TMPRSS6 (11731388_a_at) / Fold change /veh TMPRSS6 (11731388_a_at) / RFU KRTAP10-2 (11738614_at) / Fold change /veh KRTAP10-2 (11738614_at) / RFU ARHGAP8 /// PRR5-ARHGAP8 (11727945_x_at) / Fold change /veh ARHGAP8 /// PRR5-ARHGAP8 (11727945_x_at) / RFU KRTAP5-7 /// NADSYN1 (11734609_at) / Fold change /veh KRTAP5-7 /// NADSYN1 (11734609_at) / RFU RASL12 (11751679_a_at) / Fold change /veh RASL12 (11751679_a_at) / RFU CDKN2B (11736163_a_at) / Fold change /veh CDKN2B (11736163_a_at) / RFU PRF1 (11729649_at) / Fold change /veh PRF1 (11729649_at) / RFU, ZNF638 /// ZNF638-IT1 / Fold change vs veh, ZNF638 /// ZNF638-IT1 / RFU, PANK3 / Fold change vs veh, PANK3 / RFU, SH3YL1 / Fold change vs veh, SH3YL1 / RFU, ZEB2 / Fold change vs veh, ZEB2 / RFU, NRIP1 / Fold change vs veh, NRIP1 / RFU, PTTG1IP / Fold change vs veh, PTTG1IP / RFU, CAPN2 / Fold change vs veh, CAPN2 / RFU, MED14 / Fold change vs veh, MED14 / RFU, SNORA58 / Fold change vs veh, SNORA58 / RFU, C1orf63 / Fold change vs veh, C1orf63 / RFU, LRRFIP1 / Fold change vs veh, LRRFIP1 / RFU, NDUFAF7 / Fold change vs veh, NDUFAF7 / RFU, SLC12A2 / Fold change vs veh, SLC12A2 / RFU, IBTK / Fold change vs veh, IBTK / RFU, ESF1 / Fold change vs veh, ESF1 / Fold change vs veh, TMEM50B / RFU, TAOK1 / Fold change vs veh, TAOK1 / RFU, ACBD3 / Fold change vs veh, ACBD3 / RFU, TMA16 / Fold change vs veh, TMA16 / RFU, RWDD3 / Fold change vs veh, RWDD3 / RFU, BCAT1 / Fold change vs veh, BCAT1 / RFU, EDEM3 / Fold change vs veh, EDEM3 / RFU, TMEM33 / Fold change vs veh, TMEM33 / RFU, WDR75 / Fold change vs veh, WDR75 / RFU, AHCTF1 / Fold change vs veh, AHCTF1 / RFU, TFRC / Fold change vs veh, TFRC / RFU, ZDHHC17 / Fold change vs veh, ZDHHC17 / RFU, NOM1 / Fold change vs veh, NOM1 / RFU, ARL8B / Fold change vs veh, ARL8B / RFU, ZBTB11 / Fold change vs veh, ZBTB11 / RFU, TAMM41 / Fold change vs veh, TAMM41 / RFU, KIAA1704 /// LOC100996395 / Fold change vs veh, KIAA1704 /// LOC100996395 / RFU, ING1 / Fold change vs veh, ING1 / RFU, TRMT61B / Fold change vs veh, TRMT61B / RFU, FUBP3 / Fold change vs veh, FUBP3 / RFU, TP53 / Fold change vs veh, TP53 / RFU, TNKS2 / Fold change vs veh, TNKS2 / RFU, ZFP14 / Fold change vs veh, ZFP14 / RFU, ACTR2 / Fold change vs veh, ACTR2 / RFU, PPP3R1 / Fold change vs veh, PPP3R1 / RFU, PIK3R1 / Fold change vs veh, PIK3R1 / RFU, HNRNPA1 / Fold change vs veh, HNRNPA1 / RFU, RNF170 / Fold change vs veh, RNF170 / RFU, ZNF28 / Fold change vs veh, ZNF28 / RFU, RNGTT / Fold change vs veh, RNGTT / RFU, OGT / Fold change vs veh, OGT / RFU, BRD1 / Fold change vs veh, BRD1 / RFU, MARS / Fold change vs veh, MARS / RFU, ZNF655 / Fold change vs veh, ZNF655 / RFU, FAHD1 / Fold change vs veh, FAHD1 / RFU, BDP1 / Fold change vs veh, BDP1 / RFU, LRRCC1 / Fold change vs veh, LRRCC1 / RFU, ARID1A / Fold change vs veh, ARID1A / RFU, ZNF146 / Fold change vs veh, ZNF146 / RFU, ZNF330 / Fold change vs veh, ZNF330 / RFU, GPN3 / Fold change vs veh, GPN3 / RFU, C9orf123 / Fold change vs veh, C9orf123 / RFU, N4BP2L2 / Fold change vs veh, N4BP2L2 / RFU, ARFIP1 / Fold change vs veh, ARFIP1 / RFU, FAM179B / Fold change vs veh, FAM179B / RFU, BCL10 / Fold change vs veh, BCL10 / RFU, UHRF1BP1L / Fold change vs veh, UHRF1BP1L / RFU, BET1 / Fold change vs veh, BET1 / RFU, CNOT2 / Fold change vs veh, CNOT2 / RFU, ZNF268 / Fold change vs veh, ZNF268 / Fold change vs veh, ZNF507 / RFU, DGCR2 / Fold change vs veh, DGCR2 / RFU, WDSUB1 / Fold change vs veh, WDSUB1 / Fold change vs veh, HSP90B1 /// MIR3652 / RFU, ADSS / Fold change vs veh, ADSS / RFU, GK / Fold change vs veh, GK / RFU, ZNF148 / Fold change vs veh, ZNF148 / RFU, TAF9 / Fold change vs veh, TAF9 / RFU, SLC1A5 / Fold change vs veh, SLC1A5 / RFU, SLMO2 / Fold change vs veh, SLMO2 / RFU, ABCC4 / Fold change vs veh, ABCC4 / RFU, LOC101060439 /// RAP1B / Fold change vs veh, LOC101060439 /// RAP1B / RFU, RFX7 / Fold change vs veh, RFX7 / RFU, GTPBP10 / Fold change vs veh, GTPBP10 / RFU, CNEP1R1 / Fold change vs veh, CNEP1R1 / RFU, BIVM-ERCC5 /// ERCC5 / Fold change vs veh, BIVM-ERCC5 /// ERCC5 / RFU, ILF3 / Fold change vs veh, ILF3 / RFU 11762660_at / Fold change /veh 11762660_at / RFU VCAN (11757783_s_at) / Fold change /veh VCAN (11757783_s_at) / RFU DDX43 (11728927_at) / Fold change /veh DDX43 (11728927_at) / RFU KRT8 (11758188_x_at) / Fold change /veh KRT8 (11758188_x_at) / RFU NKD1 (11759106_at) / Fold change /veh NKD1 (11759106_at) / RFU SRD5A1 (11742802_a_at) / Fold change /veh SRD5A1 (11742802_a_at) / RFU TPSAB1 /// TPSB2 (11721975_s_at) / Fold change /veh TPSAB1 /// TPSB2 (11721975_s_at) / RFU GSTM3 (11746129_a_at) / Fold change /veh GSTM3 (11746129_a_at) / RFU IL23R (11737362_x_at) / Fold change /veh IL23R (11737362_x_at) / RFU TMEM51 (11727254_a_at) / Fold change /veh TMEM51 (11727254_a_at) / RFU PIWIL2 (11732686_x_at) / Fold change /veh PIWIL2 (11732686_x_at) / RFU ORM1 (11744905_x_at) / Fold change /veh ORM1 (11744905_x_at) / RFU CCDC152 (11743942_at) / Fold change /veh CCDC152 (11743942_at) / RFU ECM1 (11717891_a_at) / Fold change /veh ECM1 (11717891_a_at) / RFU IL23R (11748794_a_at) / Fold change /veh IL23R (11748794_a_at) / RFU TNFAIP8L3 (11732012_x_at) / Fold change /veh TNFAIP8L3 (11732012_x_at) / RFU MBOAT4 (11741988_at) / Fold change /veh MBOAT4 (11741988_at) / RFU 11764193_at / Fold change /veh 11764193_at / RFU TMEM53 (11763286_at) / Fold change /veh TMEM53 (11763286_at) / RFU MAGEB2 (11727129_at) / Fold change /veh MAGEB2 (11727129_at) / RFU TMEM200A (11744735_a_at) / Fold change /veh TMEM200A (11744735_a_at) / RFU CCDC152 (11751479_a_at) / Fold change /veh CCDC152 (11751479_a_at) / RFU FAM211A (11726209_a_at) / Fold change /veh FAM211A (11726209_a_at) / RFU RGS16 (11746705_a_at) / Fold change /veh RGS16 (11746705_a_at) / RFU VCAN (11755009_s_at) / Fold change /veh VCAN (11755009_s_at) / RFU RHOB (11743442_s_at) / Fold change /veh RHOB (11743442_s_at) / RFU RGS16 (11720943_a_at) / Fold change /veh RGS16 (11720943_a_at) / RFU RGS16 (11720944_at) / Fold change /veh RGS16 (11720944_at) / RFU, VPS4B / Fold change vs veh, VPS4B / RFU, CREB1 / Fold change vs veh, CREB1 / RFU, DNAJC13 / Fold change vs veh, DNAJC13 / RFU, GNAQ / Fold change vs veh, GNAQ / RFU, CDK5R1 / Fold change vs veh, CDK5R1 / RFU, ZRANB3 / Fold change vs veh, ZRANB3 / RFU, CUL4A / Fold change vs veh, CUL4A / RFU, CCNY / Fold change vs veh, CCNY / RFU, UFL1 / Fold change vs veh, UFL1 / RFU, COG3 / Fold change vs veh, COG3 / RFU, DIAPH2 / Fold change vs veh, DIAPH2 / RFU, SKA2 / Fold change vs veh, SKA2 / RFU, AFF3 / Fold change vs veh, AFF3 / RFU, LMF1 / Fold change vs veh, LMF1 / RFU, IPO11 / Fold change vs veh, IPO11 / RFU, DFFB / Fold change vs veh, DFFB / RFU, FOXP1 / Fold change vs veh, FOXP1 / RFU, CARD8 / Fold change vs veh, CARD8 / RFU, STRN3 / Fold change vs veh, STRN3 / RFU, ADK / Fold change vs veh, ADK / RFU, RASSF2 / Fold change vs veh, RASSF2 / RFU, WIPF1 / Fold change vs veh, WIPF1 / RFU, LARP1B / Fold change vs veh, LARP1B / RFU, RASA1 / Fold change vs veh, RASA1 / RFU, RB1 / Fold change vs veh, RB1 / RFU, PPFIA1 / Fold change vs veh, PPFIA1 / RFU, MAT2A / Fold change vs veh, MAT2A / RFU, CCT5 / Fold change vs veh, CCT5 / RFU, WDR92 / Fold change vs veh, WDR92 / RFU, CUX1 / Fold change vs veh, CUX1 / RFU, TTC7A / Fold change vs veh, TTC7A / RFU, TMEM135 / Fold change vs veh, TMEM135 / RFU, DEPTOR / Fold change vs veh, DEPTOR / RFU, CPM / Fold change vs veh, CPM / RFU, DNAJB6 / Fold change vs veh, DNAJB6 / RFU, CACNA2D3 / Fold change vs veh, CACNA2D3 / RFU, DTX4 / Fold change vs veh, DTX4 / RFU, TFCP2 / Fold change vs veh, TFCP2 / RFU, GMCL1 /// GMCL1P1 / Fold change vs veh, GMCL1 /// GMCL1P1 / RFU, AEBP2 / Fold change vs veh, AEBP2 / RFU, SNHG1 /// SNORD22 /// SNORD25 /// SNORD26 /// SNORD27 /// SNORD28 /// SNORD29 /// SNORD31 / Fold change vs veh, SNHG1 /// SNORD22 /// SNORD25 /// SNORD26 /// SNORD27 /// SNORD28 /// SNORD29 /// SNORD31 / Fold change (Aza/veh), C12orf56 (ProbeSet 11735607_a_at) / Fold change (ACY-1035/veh), C12orf56 (ProbeSet 11735607_a_at) / Fold change (Aza/veh), FGFR1OP (ProbeSet 11751329_s_at) / Fold change (ACY-1035/veh), FGFR1OP (ProbeSet 11751329_s_at) / Fold change (Aza/veh), VPS36 (ProbeSet 11739960_a_at) / Fold change (ACY-1035/veh), VPS36 (ProbeSet 11739960_a_at) / RFU SYPL1 (11715823_x_at) / Fold change /veh SYPL1 (11715823_x_at) / RFU IGFBP7 (11715501_s_at) / Fold change /veh IGFBP7 (11715501_s_at) / RFU REEP3 (11722064_at) / Fold change /veh REEP3 (11722064_at) / RFU IGLL1 (11728026_x_at) / Fold change /veh IGLL1 (11728026_x_at): dose or concentration left out as unconfirmed
Details: MV-4-11 cells, 48 hours

## Nc1ncn([C@@H]2O[C@H](CO)[C@@H](O)[C@H]2O)c(=O)n1 [azacitidine]
  RFU CCDC152 (11743942_at): 8.41 RFU
